Experiment: Cleavage kinetics of cleavable linking moieties (CLM) with reducing agent THPP, compounds immobilized on a solid support
Assay type: physicochemical
Conditions: 1 mM THPP, 55° C.
Protocol: For the assay, a plurality of compounds containing the CLM was immobilized on a solid support. Next, a cleavage solution containing 10 mM THPP as a reducing agent was introduced for controlled periods of time. A second labeled compound was introduced to the solid support; compounds without a CLM will bind the labeled compounds. The cleavage reaction was carried out at 55° C., in a buffer solution at 9.5 pH. The degree of cleavage was measured as the percent of compounds that include a labeled compound as a function of time.
A similar assay as described supra was performed, except that the concentration of the reducing agent was diluted to 1 mM of THPP and the cleavage reaction was carried out at 55° C.

Q: Which cleavage reaction does the source give for methylene disulfide [CLM #1] here?
A: Its cleavage reaction is “slow”.

Reference: patent US20240316036A1, “DISULFIDE CONTAINING THERAPEUTICS AND DIAGNOSTICS” (Singular Genomics Systems, Inc., priority 2023, published 2024)
